Laboratory results: patent publication US8053442B2, “Organic compounds” (Novartis AG, priority 2008, dated 2011)
pIC50: −log10 of the molar value.

What was measured:
[1] = system: Plasmodium berghei, GFP ANKA strain; assay: In vivo assay, P. berghei mouse model; details: read-out: ED50 in P. berghei mouse model
Protocol: The Plasmodium berghei, GFP ANKA strain described in B. Franke-Fayard et al., Mol. Biochem. Parasitol., 137(1), 23-33, 2004 is used. This strain is maintained in female NMRI mice (20-22 g). The mice are kept in Standard Macrolon cages type II under standard conditions at 22° C. and 60-70% relative humidity, on a diet of pellets (PAB45—NAFAG 9009, Provimi Kliba AG, CH-4303 Kaiseraugst, Switzerland) and water ad libitu. Chloroquine (Sigma C6628) and artemisinin (Sigma 36, 159-3) are used as the standard drugs.
Stock compound solutions are prepared in 100% DMSO (suspended) or a solution consisting of 70% Tween-80 (d=1.08 g/mL) and 30% ethanol (d=0.81 g/mL), followed by a 10-fold dilution in H2O. […]
On days 1, 2 and 3 (24, 48 and 72 hours post-infection), the experimental groups are treated with a single daily dose per oral dosing (p.o). […] The dosage is determined by a preliminary toxicity test. […]
On day 4, 24 hours after the last drug treatment, 1 μL tail blood is taken and dissolved in 1 mL PBS buffer. Parasitaemia is determined with a FACScan (Becton Dickinson) by counting 100,000 red blood cells. The difference between the mean value of the control group and those of the experimental groups is calculated and expressed as a percentage relative to the control group (=activity). […] The survival of the animals is monitored for up to 30 days. […]

[2] = system: Plasmodium falciparum, NF54 (sensitive to all known drugs); assay: In vitro assay, 3H-hypoxanthine incorporation, Plasmodium falciparum NF54; assay type: cell-based; details: NF54 (CQ sensitive P. falciparum strain)
Protocol: The compounds of the invention and standard compounds are tested in vitro against two standard parasite strains: Plasmodium falciparum, NF54 (sensitive to all known drugs) and Plasmodium falciparum, K1 (chloroquine and pyrimethamine resistant). Chloroquine diphosphate (Sigma C6628), artemisinin (Sigma 36159-3), artesunate (Mepha), atovaquone (GSK) and proguanil (Roche) are used as the standard drugs. The testing is carried out in 96-well plates (Costar™ 96-well microtiter plates).
Smears of the stock cultures of the two strains are prepared and the parasitemia for each culture is determined. Cultures with parasitemia lower than 2% are not used.
Stock compound solutions are prepared in DMSO at 10 mg/mL. If insoluble in DMSO, other solvents may be used according to the recommendations of the supplier. […]
The plates are harvested with a Betaplate™ cell harvester (Wallac, Zurich, Switzerland), which transfers the red blood cells onto a glass fiber filter and washes the filters with distilled water. The dried filters are inserted into a plastic foil with 10 mL of scintillation fluid and counted in a Betaplate™ liquid scintillation counter (Wallac, Zurich, Switzerland). The results are recorded as counts per minute (cpm) per well at each drug concentration.
Data is transferred into a graphic programme (e.g. EXCEL) and expressed as percentage of the untreated controls. […]

Compound	ED50 [1] [mg/kg]	pIC50 [2]
C[C@@H]1Cc2c([nH]c3cc(Cl)c(F)cc23)[C@]2(N1)C(=O)Nc1ccc(Cl)cc12 [Example 50, (1S,3R)-5′,7-Dichloro-6-fluoro-3-methyl-2,3,4,9-tetrahydrospiro[β-carboline-1,3′-indol]-2′(1′H)-one]	1.2	9.05
C[C@H]1Cc2c([nH]c3ccc(Cl)cc23)[C@@]2(N1)C(=O)Nc1ccc(Cl)cc12 [Example 62, (1R,3S)-5′,6-Dichloro-3-methyl-2,3,4,9-tetrahydrospiro[β-carboline-1,3′-indol]-2′(1′H)-one]	1.5	8.47
